{
  "source": "patent US4390523A",
  "about": "“Sorbose for inhibiting fermentation acids in the mouth” (priority 1972, dated 1983)",
  "key": {"[1]": {"conditions": "rat, in vivo, po", "procedure": "(§4) This test was carried on for four weeks and three months. Each morning, 1 milliliter per 100 grams of body weight of a sorbose solute in water containing 0.330 g/ml was administered orally to each of the animals.\n(§5) The examinations of the blood comprised the following:\n(§6) determination of the true glycemia (glucose-oxydase dosage),\n(§7) determination of the ionemia (chlorides-phosphates-bicarbonates-sodium-potassium), azotemia, proteinemia, albuminemia, calcemia, cholesterolemia, uricemia and creatinemia, the total bilirubinemia and the levels of the alkaline phosphatases, the creatine-phosphokinases and the glutamino-oxaloacetic transaminases (these determinations were effected with the aid of a Technicon SM A 6+SM A 12 autoanalyzer).\n(§8) These biological tests were carried out first on animals fed normally and then on the same animals in the course of the following weeks during which sorbose was being administered as a supplement to the food ration, as hereinbefore described."}, "[2]": {"test_system": "ROCKFELLER mice and WISTAR rats", "assay": "Overall toxicity and tolerance tests of sorbose in mice and rats", "type": "in vivo, mouse; rat", "source_text": "(§1) The toxicity of sorbose has been studied in a first series of tests.\n(§2) The test animals were ROCKFELLER mice and WISTAR rats."}, "[3]": {"assay": "Urinary biological parameters before and during oral administration of sorbose (Table I)", "type": "in vivo, WISTAR rat", "method": "In the course of this experiment, detailed biological examinations concerning the urine and blood were carried out.\nThe urine examinations comprised the following: determination of the reducing power (copper-neocuproin method), determination of the true glycosuria (glucose-oxydase method), determination of the proteinuria, measurement of the urinary pH, determination of the urinary ionogram relating to the chlorine ions, sodium and potassium."}, "[4]": {"assay": "Clinical observation and weight development during oral administration of sorbose (food value)", "type": "in vivo, WISTAR rat", "conditions": "0.330 g per 100 g of body weight orally", "source_text": "The food value of sorbose has been studied in a second series of tests."}, "man": {"test_system": "man", "assay": "Hypersorbemia produced in man", "type": "in vivo", "conditions": "1 gram per kg, empty stomach, in one lot", "method": "To complete the tests concerned with animals, tests were carried out for hypersorbemia produced in man (ingestion on an empty stomach in one lot of a dose of sorbose equivalent to 1 gram per kg of weight)."}, "[5]": {"assay": "Chromatographic examination of the urine of animals ingesting sorbose", "type": "in vivo, WISTAR rat", "procedure": "Thus, sorbose was administered orally to rats of the WISTAR type, as a supplement to the usual food ration, in a dose of 0.330 grams per 100 grams of body weight; such a dose would correspond to a daily intake of 198 grams of sorbose in a 60 kg person. This test was carried on for four weeks and three months. Each morning, 1 milliliter per 100 grams of body weight of a sorbose solute in water containing 0.330 g/ml was administered orally to each of the animals."}, "[6]": {"test_system": "viscera: stomach, small intestine, large intestine, liver, kidneys and pancreas", "assay": "Anatomical and histopathological observations at the end of the tests", "type": "in vivo, WISTAR rat", "source_text": "At the end of the tests the animals were put to death so that anatomical and histopathological observations could be made."}, "[7]": {"assay": "Acute toxicity and lethalness of sorbose in rats", "type": "in vivo, WISTAR rat", "conditions": "rat, in vivo, ip; intraperitoneal; WISTAR rats; Karber and Behrens method; read-out: lethal dose 50 (LD50)", "method": "as §1, §2\n(§3) Thus, solutes of sorbose (concentrations used: 615, 700, 900, 1000 and 1100 mg per ml) were administered orally, intravenously and intraperitoneally in different doses and concentrations to male mice of the ROCKFELLER type and to male rats of the WISTAR type."}, "[8]": {"test_system": "male rats of the WISTAR type", "assay": "Acute toxicity and lethalness of sorbose in rats", "type": "in vivo, WISTAR rat", "conditions": "rats", "method": "as §1, §2, §3"}, "[9]": {"assay": "Acute toxicity and lethalness of sorbose in mice", "type": "in vivo, ROCKFELLER mouse", "conditions": "mouse, in vivo, ip; intraperitoneal; ROCKFELLER mice; Karber and Behrens method; read-out: lethal dose 50 (LD50)", "method": "as §1, §2, §3"}, "[10]": {"test_system": "male mice of the ROCKFELLER type", "assay": "Acute toxicity and lethalness of sorbose in mice", "type": "in vivo, ROCKFELLER mouse", "conditions": "mice", "method": "as §1, §2, §3"}, "[11]": {"assay": "Biological parameters of blood before and during oral administration of sorbose (Table II)", "conditions": "WISTAR rats, oral ingestion", "procedure": "as §4, §5, §6, §7, §8"}, "[12]": {"conditions": "cited from earlier work"}, "[13]": {"test_system": "oral bacteria (dilute human saliva)", "assay": "Formation of acids and lowering of pH by fermentation by oral bacteria (Table III)", "type": "cell-based", "conditions": "for pH of medium / NaOH necessary for neutralization: 1 ml of 18% solution in 10 ml medium; for pH of medium: saliva, 37° C.; for NaOH necessary for neutralization: N/40 NaOH", "method": "A series of tubes containing 10 ml of a sugarless nutritive culture medium at pH 7 was prepared. These tubes were sterilized by passing them through an autoclave at 120° C. for 20 minutes.\n1 ml of sterile water was introduced into a first series of five tubes to make a control series.\n1 ml of a sterile 18% solution of dextrose (weight/volume=W/V) was introduced into a second series of five tubes.\n1 ml of a sterile 18% solution of saccharose (W/V) was introduced into a third series of five tubes.\n1 ml of a sterile 18% solution of sorbose (W/V) was introduced into a fourth series of five tubes.\nThe sterile solutions of dextrose, saccharose and sorbose were obtained by sterilizing filtration by the usual technique.\nA dilution of human saliva was prepared for immediate use and four tubes of each series were inoculated with the same volume of dilute saliva.\nThe formation of acids was followed by electric measurement of the pH and by determination of the quantity of acids formed; this determination was effected with a N/40 sodium/hydroxide solution, phenolphthalein being used as a neutralization indicator; a first determination was made before incubation, the following four determinations after incubations of 3, 6, 10 and 24 hours, respectively, at 37° C.\nThe results are assembled in Table III (pH value and value of the number of ml of sodium hydroxide necessary for neutralization)."}, "[14]": {"conditions": "prolonged administration orally and in high doses"}, "[15]": {"conditions": "330 mg/100 g oral, a = first week, rats 1-6"}, "[16]": {"conditions": "330 mg/100 g oral, b = fifth week, rats 1-6"}, "[17]": {"conditions": "330 mg/100 g oral, c = thirteenth week, rats 1-6"}},
  "note": "Values joined by “and” are separate entries in the source; they are usually repeats but may differ in a detail not shown here. Equal entries are not always repeated. “Also recorded” adds a separate entry of the source.",
  "data": [
    {"molecule": "O=C(CO)[C@H](O)[C@@H](O)[C@H](O)CO", "note": "[sorbose]", "values": [
      {"measurement": "serobiogram (conclusion)", "setting": "[1]", "value": "does not modify the serobiogram"},
      {"measurement": "total reducing power of the serum (conclusion)", "setting": "[1]", "value": "does not modify the value of the true glycemia or that of the total reducing power of the serum"},
      {"measurement": "toxicity (acute, subacute and chronic)", "setting": "[2]; ROCKFELLER mice and WISTAR rats", "value": "devoid of acute, subacute and chronic toxicity; also recorded: absence of acute toxicity"},
      {"measurement": "clinical and biological tolerance", "setting": "[2]; [14]", "value": "tolerated perfectly on the clinical and biological planes"},
      {"measurement": "histologically detectable visceral lesion", "setting": "[2]; [14]", "value": "does not result in any histologically detectable visceral lesion"},
      {"measurement": "physiological proteinuria (conclusion)", "setting": "[3]; 330 mg/100 g oral, 13 weeks", "value": "does not lead to a significant modification of the physiological proteinuria"},
      {"measurement": "reducing power in the urine (conclusion)", "setting": "[3]; 330 mg/100 g oral, 13 weeks", "value": "causes the appearance of the reducing power in the urine"},
      {"measurement": "urinary ionogram (conclusion)", "setting": "[3]; 330 mg/100 g oral, 13 weeks", "value": "does not modify the urinary ionogram"},
      {"measurement": "urinary pH (conclusion)", "setting": "[3]; 330 mg/100 g oral, 13 weeks", "value": "does not modify the urinary pH"},
      {"measurement": "urinary potassium", "setting": "[3]; [15]", "value": "1.10 meq/24 h and 1.03 meq/24 h and 1.68 meq/24 h and 1.26 meq/24 h and 1.48 meq/24 h and 1 meq/24 h"},
      {"measurement": "urinary total reducing power", "setting": "[3]; [15]", "value": "56 mg/24 h and 30 mg/24 h and 39 mg/24 h and 38 mg/24 h and 35 mg/24 h and 28 mg/24 h"},
      {"measurement": "urinary chlorides", "setting": "[3]; [16]", "value": "1.27 meq/24 h and 0.90 meq/24 h and 1.11 meq/24 h and 1.56 meq/24 h and 1.00 meq/24 h and 1.46 meq/24 h"},
      {"measurement": "urinary pH", "setting": "[3]; [16]", "value": "8.5 and 8.2 and 9.2 and 9.1"},
      {"measurement": "urinary chlorides", "setting": "[3]; [17]", "value": "0.92 meq/24 h and 0.79 meq/24 h and 0.70 meq/24 h and 0.90 meq/24 h and 1.08 meq/24 h and 0.76 meq/24 h"},
      {"measurement": "urinary pH", "setting": "[3]; [17]", "value": "9 and 8.5 and 8.8 and 9.1"},
      {"measurement": "urinary potassium", "setting": "[3]; [17]", "value": "1.19 meq/24 h and 0.99 meq/24 h and 1.20 meq/24 h and 1.26 meq/24 h and 1.08 meq/24 h"},
      {"measurement": "urinary sodium", "setting": "[3]; [17]", "value": "0.39 meq/24 h and 0.34 meq/24 h and 0.54 meq/24 h and 0.45 meq/24 h and 0.46 meq/24 h and 0.61 meq/24 h"},
      {"measurement": "urinary total reducing power", "setting": "[3]; [17]", "value": "36 mg/24 h and 31 mg/24 h and 32 mg/24 h and 41 mg/24 h"},
      {"measurement": "glycosuria", "setting": "[3]; during oral administration, 330 mg/100 g, 13 weeks", "value": "No glycosuria was detected; also recorded: does not result in true glycosuria"},
      {"measurement": "clinically detectable anomalies", "setting": "[4]; four weeks and three months", "value": "no clinically detectable anomalies were observed"},
      {"measurement": "weight development", "setting": "[4]; versus control animals", "value": "comparable to that observed in control animals"},
      {"measurement": "tolerance in man", "setting": "man", "value": "well tolerated"},
      {"measurement": "total reducing power of the blood in man", "setting": "man", "value": "heightening of the total reducing power of the blood, which disappeared in a few hours"},
      {"measurement": "true glycemia in man", "setting": "man", "value": "did not produce any variation in the true glycemia"},
      {"measurement": "glucose and sorbose in the urine by chromatographic examination", "setting": "[5]", "value": "absence of glucose and the presence of sorbose"},
      {"measurement": "anatomical anomaly of the viscera", "setting": "[6]", "value": "no anatomical anomaly was found"},
      {"measurement": "histopathological change of structure of the organs", "setting": "[6]", "value": "did not enable any histopathological change of structure of the organs examined to be detected"},
      {"measurement": "LD50", "setting": "[7]", "value": 12800, "unit": "mg/kg"},
      {"measurement": "dose at which no lethalness was observed", "setting": "[8]; intravenously", "value": "5.5 grams per kg of body weight"},
      {"measurement": "dose at which no lethalness was observed", "setting": "[8]; orally", "value": "11 grams per kg of body weight"},
      {"measurement": "LD50", "setting": "[9]", "value": 13600, "unit": "mg/kg"},
      {"measurement": "dose at which no lethalness was observed", "setting": "[10]; intravenously", "value": "10 grams per kg of body weight"},
      {"measurement": "dose at which no lethalness was observed", "setting": "[10]; orally", "value": "27.5 grams per kg of body weight"},
      {"measurement": "tolerance (conclusion from the biological analyses)", "setting": "[11]", "value": "tolerated perfectly"},
      {"measurement": "solubility in alcohol", "setting": "[12]", "value": "not very soluble in alcohol"},
      {"measurement": "solubility in water", "setting": "[12]", "value": "rather soluble in water"},
      {"measurement": "pH of medium", "setting": "[13]; 0 hours", "value": 7.0},
      {"measurement": "NaOH necessary for neutralization", "setting": "[13]; 0 hours", "value": 2.50, "unit": "mL"},
      {"measurement": "pH of medium", "setting": "[13]; 3 hours", "value": 6.80},
      {"measurement": "NaOH necessary for neutralization", "setting": "[13]; 3 hours", "value": 2.25, "unit": "mL"},
      {"measurement": "pH of medium", "setting": "[13]; 6 hours", "value": 6.90},
      {"measurement": "NaOH necessary for neutralization", "setting": "[13]; 6 hours", "value": 2.20, "unit": "mL"},
      {"measurement": "pH of medium", "setting": "[13]; 10 hours", "value": 6.80},
      {"measurement": "NaOH necessary for neutralization", "setting": "[13]; 10 hours", "value": 1.90, "unit": "mL"},
      {"measurement": "pH of medium", "setting": "[13]; 24 hours", "value": 6.80},
      {"measurement": "NaOH necessary for neutralization", "setting": "[13]; 24 hours", "value": 1.90, "unit": "mL"},
      {"measurement": "formation of acids / acidification (conclusion)", "setting": "[13]; medium inoculated with dilute saliva", "value": "does not give rise to the formation of acids or to a lowering of the pH; also recorded: does not lead, by fermentation by bacteria of the mouth, to the production of fermentation acids or to a lowering of the pH; also recorded: no formation of acids or lowering of the pH; also recorded: does not give rise to the formation of acids by oral bacteria"},
      {"measurement": "cariogenicity (conclusion)", "setting": "[13]; oral bacteria", "value": "non-cariogenic"}
    ]}
  ]
}
